Results: ChEMBL document CHEMBL3352227, “Synthesis, antimycobacterial and antibacterial evaluation of l-[(1R, 2S)-2-fluorocyclopropyl]fluoroquinolone derivatives containing an oxime functional moiety” (Eur J Med Chem, 2014)
Converted amounts (≈) assume the structure as drawn.

What was measured:
[1] = tested on: Mycobacterium tuberculosis; assay: Antimycobacterial activity against isoniazid and rifampicin resistant Mycobacterium tuberculosis 6133 by MABA method; type: functional
[2] = tested on: Mycobacterium tuberculosis; assay: Antimycobacterial activity against isoniazid and rifampicin resistant Mycobacterium tuberculosis 11277 by MABA method; type: functional

SMILES	MIC [1] [µg/mL]	MIC [2] [µg/mL]
CO/N=C1/CN(c2c(F)cc3c(=O)c(C(=O)O)cn([C@@H]4C[C@@H]4F)c3c2OC)[C@H]1CN	0.125 (≈ 0.296 µM)	0.25 (≈ 0.592 µM)
NNC(=O)c1ccncc1 [ISONIAZID]	4 (≈ 29.2 µM)	1 (≈ 7.29 µM)
C[C@H]1COc2c(N3CCN(C)CC3)c(F)cc3c(=O)c(C(=O)O)cn1c23.C[C@H]1COc2c(N3CCN(C)CC3)c(F)cc3c(=O)c(C(=O)O)cn1c23.O [LEVOFLOXACIN]	0.125	0.125
NC[C@H]1/C(=N\OCc2ccccc2)CN1c1cc2c(cc1F)c(=O)c(C(=O)O)cn2[C@@H]1C[C@@H]1F	0.25 (≈ 0.534 µM)	0.5 (≈ 1.07 µM)
O=C(O)c1cn(C2CC2)c2cc(N3CCNCC3)c(F)cc2c1=O [CIPROFLOXACIN]	0.125 (≈ 0.377 µM)	0.125 (≈ 0.377 µM)
NCC1CN(c2cc3c(cc2F)c(=O)c(C(=O)O)cn3[C@@H]2C[C@@H]2F)C/C1=N/OCc1ccccc1 (stereo partly specified)	0.125 (≈ 0.259 µM)	0.25 (≈ 0.518 µM)
CO[C@H]1/C=C/O[C@@]2(C)Oc3c(C)c(O)c4c(O)c(c(/C=N/N5CCN(C)CC5)c(O)c4c3C2=O)NC(=O)/C(C)=C\C=C\[C@H](C)[C@H](O)[C@@H](C)[C@@H](O)[C@@H](C)[C@H](OC(C)=O)[C@@H]1C [RIFAMPIN]	> 40	> 40
CO/N=C1/CN(c2nc3c(cc2F)c(=O)c(C(=O)O)cn3[C@@H]2C[C@@H]2F)CC1CN (stereo partly specified)	0.125 (≈ 0.307 µM)	0.25 (≈ 0.614 µM)
CO/N=C1/CCN(c2c(F)cc3c(=O)c(C(=O)O)cn([C@@H]4C[C@@H]4F)c3c2OC)CC1N (stereo partly specified)	0.0625 (≈ 0.143 µM)	0.125 (≈ 0.286 µM)
CO/N=C1/CN(c2cc3c(cc2F)c(=O)c(C(=O)O)cn3[C@@H]2C[C@@H]2F)[C@H]1CN	0.125 (≈ 0.319 µM)	0.25 (≈ 0.637 µM)
NCC1CN(c2nc3c(cc2F)c(=O)c(C(=O)O)cn3[C@@H]2C[C@@H]2F)C/C1=N/OCc1ccccc1 (stereo partly specified)	0.125 (≈ 0.259 µM)	0.5 (≈ 1.03 µM)
CCO/N=C1/CN(c2cc3c(cc2F)c(=O)c(C(=O)O)cn3[C@@H]2C[C@@H]2F)CC1CN (stereo partly specified)	0.125 (≈ 0.297 µM)	0.125 (≈ 0.297 µM)
CCO/N=C1/CN(c2nc3c(cc2F)c(=O)c(C(=O)O)cn3[C@@H]2C[C@@H]2F)CC1CN (stereo partly specified)	0.125 (≈ 0.297 µM)	0.125 (≈ 0.297 µM)
